Source: US20190365843A1, “Antimicrobial Activity of Bioactive Compounds and Their Derivatives” (priority 2018, published 2019)

How the values were obtained:
[1] = system: S. aureus; experiment: Agar diffusion growth inhibition zone, S. aureus; assay type: cell-based, Staphylococcus aureus; details: Staphylococcus aureus, 6 mm = no activity
Description: (§1) Among the bacterial agents tested Gram positive and Gram negative bacterial groups represented by Staphylococcus aureus and Enterococcus species and pathogenic members of Enterobacteriaceae, Vibronaceae, Aeromonadaceae, Pseudomonadaceae were tested. Freshly sub-cultured bacterial strains were inoculated into peptone water and incubated for 4 hours at 37° C. and adjusted to a turbidity of 0.5 (Gram Negative Bacilli), 1 (Gram Positive Cocci) and 4 (Pus cells, GNB, & few Budding yeast cells) Mc Farland standards (10^8 CFU/ml) respectively.
(§2) The different bioactive compounds and their derivatives were dissolved and diluted with solvents (DMSO), number of subsequent dilutions was performed to obtain different concentrations of the bioactive compounds and their derivatives. (Working Concentrations).
(§3) Agar well diffusion method is widely used to evaluate the antimicrobial activity of plants or other synthetic products. The suspension (microbial inoculum) was used to inoculate into Muller Hinton Agar Petri plates by lawn culture. Well (diameter 6 mm) were punched in the agar by sterile borer and filled with 50 μl of dissolved extracts. Plates were incubated in incubator at 37° C. for 24 hours and measured the growth inhibition zone diameters in mm compared with that of control (DMSO) showing no growth.
(§4) The bioactive compounds were tested with desired concentrations in 6 mm filter paper discs (Whatman, no. 3) were impregnated with 10 μL of each of the different dilutions. The discs were allowed to remain at room temperature until complete diluent evaporation and kept under refrigeration until ready to be used. 10 μL of diluents used to products were used as control. Tests were performed by Agar disk-diffusion testing method, which is the official method used in many clinical microbiology laboratories for routine antimicrobial susceptibility testing.
(§5) Similar to the procedure used in Agar well diffusion method, the suspension (microbial inoculum) was used to inoculate into Muller Hinton Agar Petri plates by lawn culture. Then, filter paper discs (about 6 mm in diameter), containing the test compound at a desired concentration, were placed on the agar surface. The Petri dishes were incubated under suitable incubation conditions.
(§6) Bioactive compounds showing zone of inhibition beyond the size of 6 mm are considered to be having an anti-microbial activity.

[2] = system: Enterococcus sp.; experiment: Agar diffusion growth inhibition zone, Enterococcus sp.; assay type: cell-based, Enterococcus species; details: 6 mm = no activity
Description: as §1, §2, §3, §4, §5, §6

[3] = system: Salmonella typhimurium; experiment: Agar diffusion growth inhibition zone, Salmonella typhimurium; assay type: cell-based; details: Salmonella enterica, 6 mm = no activity
Description: as §1, §2, §3, §4, §5, §6

[4] = system: Proteus sp.; experiment: Agar diffusion growth inhibition zone, Proteus sp.; assay type: cell-based, Proteus species; details: Proteus sp.; 150 mg; 6 mm = no activity
Description: as §1, §2, §3, §4, §5, §6

[5] = system: E. coli ATCC 25922; experiment: Agar diffusion growth inhibition zone, E. coli ATCC 25922; assay type: cell-based; details: Escherichia coli, 6 mm = no activity; for zone of inhibition at 100 mg/mL: ATCC25922, 100 mg; for zone of inhibition at 150 mg/mL: ATCC25922, 150 mg
Description: as §1, §2, §3, §4, §5, §6

[6] = system: EAEC; experiment: Agar diffusion growth inhibition zone, EAEC; assay type: cell-based, Enteroaggregative E. coli; details: for zone of inhibition at 100 mg/mL / zone of inhibition at 150 mg/mL: Escherichia coli, 6 mm = no activity
Description: as §1, §2, §3, §4, §5, §6

[7] = system: ETEC; experiment: Agar diffusion growth inhibition zone, ETEC; assay type: cell-based, Enterotoxigenic E. coli; details: for zone of inhibition at 100000 µg/disc / zone of inhibition at 150000 µg/disc: Escherichia coli; for inhibition of growth: ETEC
Description: (§7) Agar well diffusion method is widely used to evaluate the antimicrobial activity of plants or other synthetic products. The suspension (microbial inoculum) was used to inoculate into Muller Hinton Agar Petri plates by lawn culture. Well (diameter 6 mm) were punched in the agar by sterile borer and filled with 50 μl of dissolved extracts. Plates were incubated in incubator at 37° C. for 24 hours and measured the growth inhibition zone diameters in mm compared with that of control (DMSO) showing no growth. The antimicrobial agent diffuses in the agar medium and inhibits the growth of the microbial strain tested (Valgas et al., (2016) Methods for in vitro evaluating antimicrobial activity: A review. Journal of Pharmaceutical Analysis. 6(2):71-9).
(§8) Similar to the procedure used in Agar well diffusion method, the suspension (microbial inoculum) was used to inoculate into Muller Hinton Agar Petri plates by lawn culture. Then, filter paper discs (about 6 mm in diameter), containing the test compound at a desired concentration, were placed on the agar surface. The Petri dishes were incubated under suitable incubation conditions. Generally, antimicrobial agent diffuses into the agar and inhibits germination and growth of the test microorganism and then the diameters of inhibition growth zones are measured (Valgas et al., (2007) Screening methods to determine antibacterial activity of natural products. Brazilian Journal of Microbiology. 38:369-80; Balouiri M et al., (2016) Methods for in vitro evaluating antimicrobial activity: A review. Journal of Pharmaceutical Analysis. 6(2):71-9).

[8] = system: Shigella sp.; experiment: Agar diffusion growth inhibition zone, Shigella sp.; assay type: cell-based, Shigella species; details: Shigella
Description: as §7, §8

[9] = system: Pseudomonas sp.; experiment: Agar diffusion growth inhibition zone, Pseudomonas sp.; assay type: cell-based, Pseudomonas species; details: Pseudomonas
[10] = system: Klebsiella sp.; experiment: Agar diffusion growth inhibition zone, Klebsiella sp.; assay type: cell-based, Klebsiella species; details: 6 mm = no activity
Description: as §1, §2, §3, §4, §5, §6

[11] = system: Aeromonas sp.; experiment: Agar diffusion growth inhibition zone, Aeromonas sp.; assay type: cell-based, Aeromonas species; details: Aeromonas sp., 6 mm = no activity
Description: as §1, §2, §3, §4, §5, §6

[12] = system: Pleisiomonas sp.; experiment: Agar diffusion growth inhibition zone, Pleisiomonas sp.; assay type: cell-based, Pleisiomonas species; details: for zone of inhibition at 100 mg/mL / zone of inhibition at 150 mg/mL: Pleisiomonas sp., 6 mm = no activity
Description: as §1, §2, §3, §4, §5, §6

[13] = system: Candida abicans; experiment: Agar diffusion growth inhibition zone, Candida abicans; assay type: cell-based, Candida albicans; details: 6 mm = no activity
Description: as §1, §2, §3, §4, §5, §6

[14] = system: Vibrio cholera; experiment: Agar diffusion growth inhibition zone, Vibrio cholera; assay type: cell-based, Vibrio cholerae; details: Vibrio cholerae
[15] = system: Citrobacter sp.; experiment: Agar diffusion growth inhibition zone, Citrobacter sp.; assay type: cell-based, Citrobacter species; details: 6 mm = no activity
Description: as §1, §2, §3, §4, §5, §6

COc1cc(CCC(=O)/C=C(\N)CCc2ccc(O)c(OC)c2)ccc1O [compound 9, Amino- tetrahydrocurcumin]
zone of inhibition at 100 mg/mL [1]: 6 mm
zone of inhibition at 150 mg/mL [1]: 6 mm
zone of inhibition at 100 mg/mL [2]: 6 mm
zone of inhibition at 150 mg/mL [2]: 6 mm
zone of inhibition at 100 mg/mL [3]: 6 mm
zone of inhibition at 150 mg/mL [3]: 6 mm
zone of inhibition at 150 mg/mL [4]: 6 mm
zone of inhibition at 100 mg/mL [5]: 6 mm
zone of inhibition at 150 mg/mL [5]: 6 mm
zone of inhibition at 100 mg/mL [6]: 6 mm
zone of inhibition at 150 mg/mL [6]: 6 mm
zone of inhibition at 100000 µg/disc [7]: 9 mm
zone of inhibition at 150000 µg/disc [7]: 9 mm
zone of inhibition at 100000 µg/disc [8]: 6 mm
zone of inhibition at 150000 µg/disc [8]: 6 mm
zone of inhibition at 100000 µg/disc [9]: 6 mm
zone of inhibition at 150000 µg/disc [9]: 6 mm
zone of inhibition at 100 mg/mL [10]: 6 mm
zone of inhibition at 150 mg/mL [10]: 6 mm
zone of inhibition at 100 mg/mL [11]: 6 mm
zone of inhibition at 150 mg/mL [11]: 6 mm
zone of inhibition at 100 mg/mL [12]: 6 mm
zone of inhibition at 150 mg/mL [12]: 6 mm
zone of inhibition at 100 mg/mL [13]: 6 mm
zone of inhibition at 150 mg/mL [13]: 6 mm
zone of inhibition at 100000 µg/disc [14]: 6 mm
zone of inhibition at 150000 µg/disc [14]: 6 mm
zone of inhibition at 100 mg/mL [15]: 6 mm
zone of inhibition at 150 mg/mL [15]: 6 mm

CCOC(=O)Oc1ccc(/C=C/C(=O)COC(=O)/C=C/c2ccc(OC(=O)OCC)c(OC)c2)cc1OC [compound 7, Diethylcalebin-A dicarbonate]
zone of inhibition at 100 mg/mL [1]: 6 mm
zone of inhibition at 150 mg/mL [1]: 6 mm
zone of inhibition at 100 mg/mL [2]: 6 mm
zone of inhibition at 150 mg/mL [2]: 6 mm
zone of inhibition at 100 mg/mL [3]: 6 mm
zone of inhibition at 150 mg/mL [3]: 6 mm
zone of inhibition at 150 mg/mL [4]: 6 mm
zone of inhibition at 100 mg/mL [5]: 6 mm
zone of inhibition at 150 mg/mL [5]: 6 mm
inhibition of growth [6]: inhibited
zone of inhibition at 100 mg/mL [6]: 9 mm
zone of inhibition at 150 mg/mL [6]: 9 mm
inhibition of growth [7]: significantly inhibited the growth
zone of inhibition at 100000 µg/disc [7]: 10 mm
zone of inhibition at 150000 µg/disc [7]: 10 mm
zone of inhibition at 100000 µg/disc [8]: 6 mm
zone of inhibition at 150000 µg/disc [8]: 6 mm
zone of inhibition at 100000 µg/disc [9]: 6 mm
zone of inhibition at 150000 µg/disc [9]: 6 mm
zone of inhibition at 100 mg/mL [10]: 6 mm
zone of inhibition at 150 mg/mL [10]: 6 mm
zone of inhibition at 100 mg/mL [11]: 6 mm
zone of inhibition at 150 mg/mL [11]: 6 mm
zone of inhibition at 100 mg/mL [12]: 10 mm
zone of inhibition at 150 mg/mL [12]: 10 mm
inhibition of growth ([12]; Plesiomonas species): inhibited
zone of inhibition at 100 mg/mL [13]: 6 mm
zone of inhibition at 150 mg/mL [13]: 6 mm
zone of inhibition at 100000 µg/disc [14]: 6 mm
zone of inhibition at 150000 µg/disc [14]: 6 mm
zone of inhibition at 100 mg/mL [15]: 6 mm
zone of inhibition at 150 mg/mL [15]: 6 mm

COc1cc(/C=C/C(=O)COC(=O)/C=C/c2ccc(O)c(OC)c2)ccc1O [compound 5, Calebin-A]
zone of inhibition at 100 mg/mL [1]: 6 mm
zone of inhibition at 150 mg/mL [1]: 6 mm
zone of inhibition at 100 mg/mL [2]: 6 mm
zone of inhibition at 150 mg/mL [2]: 6 mm
zone of inhibition at 100 mg/mL [3]: 6 mm
zone of inhibition at 150 mg/mL [3]: 6 mm
zone of inhibition at 150 mg/mL [4]: 6 mm
zone of inhibition at 100 mg/mL [5]: 6 mm
zone of inhibition at 150 mg/mL [5]: 6 mm
inhibition of growth [6]: inhibited
zone of inhibition at 100 mg/mL [6]: 7 mm
zone of inhibition at 150 mg/mL [6]: 7 mm
inhibition of growth [7]: significantly inhibited the growth
zone of inhibition at 100000 µg/disc [7]: 11 mm
zone of inhibition at 150000 µg/disc [7]: 11 mm
zone of inhibition at 100000 µg/disc [8]: 6 mm
zone of inhibition at 150000 µg/disc [8]: 6 mm
zone of inhibition at 100000 µg/disc [9]: 6 mm
zone of inhibition at 150000 µg/disc [9]: 6 mm
zone of inhibition at 100 mg/mL [10]: 6 mm
zone of inhibition at 150 mg/mL [10]: 6 mm
zone of inhibition at 100 mg/mL [11]: 6 mm
zone of inhibition at 150 mg/mL [11]: 6 mm
zone of inhibition at 100 mg/mL [12]: 6 mm
zone of inhibition at 150 mg/mL [12]: 6 mm
zone of inhibition at 100 mg/mL [13]: 6 mm
zone of inhibition at 150 mg/mL [13]: 6 mm
zone of inhibition at 100000 µg/disc [14]: 6 mm
zone of inhibition at 150000 µg/disc [14]: 6 mm
zone of inhibition at 100 mg/mL [15]: 6 mm
zone of inhibition at 150 mg/mL [15]: 6 mm
